Entries after “also recorded” stand apart in the source; their conditions may differ. Read-outs that look alike come from different tables or passages of the source.
Columns and labels:
γ-secretase [1] = assay: In vitro γ-secretase assay (in vitro model of amyloidosis): CTF-γ from membrane-bound APP, H4-APPswe cells; assay type: biochemical, human
Procedure: (§1) For assessment of γ-secretase activity, cell monolayers were rinsed twice with ice-cold PBS on ice, scraped from tissue culture dishes and centrifuged (1,500 rpm, 10 min, 4° C.). Cell pellets were then resuspended (0.5 ml/10 cm dish) in homogenization buffer (10 mM MOPS pH 7.0, 10 mM potassium chloride, 1× complete protease inhibitor (PI) (Roche Molecular Biochemicals, Germany) and homogenized by passing cell suspensions through a 23-gauge needle 10 times. Homogenates were then centrifuged (2,500 rpm, 15 min at 4° C.) to remove unbroken cells and nuclei. The supernatant (membrane and post-nuclear supernatant) was then centrifuged (14,000 rpm, 20 min, 4° C.) and rinsed in homogenization buffer. Membranes were then resuspended (0.5 ml/10 cm dish) in assay buffer (150 mM sodium citrate pH 6.4; 1×PI) and incubated at (2 hr) at 37° C. in 25 μl of incubation buffer per assay sample to allow for generation of the CTF-γ cleavage product; negative control samples were maintained on ice. CTF-γ cleavage products (as well as CTF-α and CTF-β) were resolved electrophoretically in 10-20% Tris-Tricine gels (Bio Rad Laboratories, CA), and identified using an anti APP polyclonal C8 antibody. Immunoreactivities were visualized autoradiographically using a chemiluminescence detection kit (SuperSignal; Pierce Biotechnology, Rockford, Ill.). […]

α-secretase = assay: Cell-based α-secretase activity assay (fluorometric kit) in pinitol-treated H4 cells; set-up: species or system human; conditions: cultured H4 cells, increasing concentrations of pinitol, 24 and 48 hours
Procedure: (§2) In this study, cultured human glioma H4-cells with constitutive APP751 expression were treated with increasing concentrations of pinitol, and then cellular ∀- and ∃-secretase activity as well as A∃ peptide contents in the conditioned media were assessed in response to pinitol treatment over time. Growth and maintenance of H4-APP751 cells were as described in Qin et al. (J. Biol. Chem. 2002; 278:50970-50977). Confluent cell cultures were treated with increasing concentration of pinitol. At 24 and 48 hours after pinitol treatment, cells were harvested for secretase activity assays and conditioned media were collected for measurement of A∃ peptide contents. The ∀-secretase (FIG. 7A) and ∃-secretase (FIG. 7B) activities in pinitol-treated cells were measured using commercially available kits (R&D Systems). Harvested cells were homogenized in supplied buffers and homogenate was added to a secretase-specific APP peptide conjugated to the reporter molecules EDANS and DABCYL. […] Cleavage of the peptide by the secretase physically separates the EDANS and DABCYL, allowing the release of a fluorescent signal. The level of ∀-secretase (FIG. 7A) or ∃-secretase (FIG. 7B) enzymatic activity is proportional to the fluorometric reaction in the homogenate. […] A∃ peptides were measured by ELISA as described above. […]

β-secretase = molecular target: T1, β-secretase (Homo sapiens, UniProt P56817); assay: Cell-based β-secretase activity assay (fluorometric kit) in pinitol-treated H4 cells; conditions: cultured H4 cells, increasing concentrations of pinitol, 24 and 48 hours
T1 construct: endogenous in cells; host or cells: H4-APP751 human glioma cells (homogenate)
T1 sequence (P56817 46-501): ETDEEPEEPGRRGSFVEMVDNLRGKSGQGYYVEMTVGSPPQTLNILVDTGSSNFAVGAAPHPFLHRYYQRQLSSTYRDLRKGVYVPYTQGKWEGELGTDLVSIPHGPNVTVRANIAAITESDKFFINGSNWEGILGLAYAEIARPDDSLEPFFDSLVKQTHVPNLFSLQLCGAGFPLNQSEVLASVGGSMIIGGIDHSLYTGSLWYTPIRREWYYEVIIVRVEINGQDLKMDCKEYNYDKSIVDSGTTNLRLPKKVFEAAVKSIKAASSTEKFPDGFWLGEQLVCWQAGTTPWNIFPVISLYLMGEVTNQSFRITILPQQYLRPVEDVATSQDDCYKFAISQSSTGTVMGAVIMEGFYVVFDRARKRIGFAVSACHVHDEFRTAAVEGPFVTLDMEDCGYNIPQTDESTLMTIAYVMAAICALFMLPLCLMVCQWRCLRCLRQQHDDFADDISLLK
Procedure: as §2

γ-secretase [2] = assay: Aβ peptide content in conditioned media by ELISA (γ-secretase readout) in pinitol-treated H4 cells; assay type: cell-based, human
Procedure: For quantitative assessment of A∃ peptides (Xiang et al. Gene Expr. 2002, 10:271-278), frozen pulverized brain tissues were homogenized in 5.0 M guanidine buffer, diluted (1:10) in phosphate-buffered saline containing 0.05% (v/v) Tween-20 and 1 mM Pefabloc protease inhibitors (Roche Biochemicals, Indianapolis, Ind.) and centrifuged for 20 min at 4° C. Total Aβ1-40 or Aβ1-42 was measured by sandwich ELISA (BioSource, Camarillo, Calif.) according to the manufacturer's instructions. Serum specimens were assessed directly using the same ELISA according to the manufacturer's instructions.
In this study, cultured human glioma H4-cells with constitutive APP751 expression were treated with increasing concentrations of pinitol, and then cellular ∀- and ∃-secretase activity as well as A∃ peptide contents in the conditioned media were assessed in response to pinitol treatment over time. Growth and maintenance of H4-APP751 cells were as described in Qin et al. (J. Biol. Chem. 2002; 278:50970-50977). Confluent cell cultures were treated with increasing concentration of pinitol. At 24 and 48 hours after pinitol treatment, cells were harvested for secretase activity assays and conditioned media were collected for measurement of A∃ peptide contents. The ∀-secretase (FIG. 7A) and ∃-secretase (FIG. 7B) activities in pinitol-treated cells were measured using commercially available kits (R&D Systems). Harvested cells were homogenized in supplied buffers and homogenate was added to a secretase-specific APP peptide conjugated to the reporter molecules EDANS and DABCYL. […] Cleavage of the peptide by the secretase physically separates the EDANS and DABCYL, allowing the release of a fluorescent signal. The level of ∀-secretase (FIG. 7A) or ∃-secretase (FIG. 7B) enzymatic activity is proportional to the fluorometric reaction in the homogenate. […] A∃ peptides were measured by ELISA as described above. In FIG. 7, each value represents Mean±SEM; n=4 cultures per assay; * P<0.05 vs. control (no pinitol treatment) group (2-tailed Student's t test).

γ-secretase [3] = assay: In vitro γ-secretase assay in extracts obtained from CHO-APPswe cells; assay type: biochemical; conditions: data not shown
Procedure: as §1

[4] = LDH assay of cell toxicity; assay type: cell-based; conditions: all concentrations tested, 50-250 μM, not shown
NOTCH [5] = assay: γ-secretase-mediated cleavage of NOTCH in H4-APPswe cells; assay type: cell-based, human; conditions: FIG. 8B
From the text: The selectivity of D-pinitol action was further addressed by examining its effect on cleavage of the signaling molecule NOTCH. The “gamma-secretase” complex, consisting of presenilins (PS), nicastrin (NCT), APH-1 and PEN-2, catalyzes the intramembranous proteolysis of truncated Notch derivatives to generate NICD, respectively.

NOTCH [6] = assay: Cleavage of NOTCH in the neocortex of Tg2576 transgenic mice; assay type: in vivo, mouse; conditions: compared to insulin-resistant and control Tg2576 mice, data not shown
Tg2576 mice [7] = assay: Aβ peptide content (ELISA) in the brain of Tg2576 mice on high-fat diet plus pinitol; assay type: in vivo, mouse; conditions: 12-month old female Tg2576 mice, high-fat diet plus pinitol in drinking water (600 mg/liter), from 4 months of age
From the text: This study assessed A∃ peptide contents in the brain and in the periphery (serum) of 12-month old female Tg2576 mice in response to chronic treatment, initiating at 4 month of age, with a high-fat (HF) diet or HF diet plus pinitol (N=3-4 per group). Gender-age-matched Tg2576 mice maintained on standard rodent laboratory diet (LF diet) served as controls. High-fat diet and standard laboratory diet containing equal % of cholesterol per g/diet were purchased from Research Diet, Inc. (New Brunswick, N.J.) (Ho et al, FASEB J 2004; 18:902-204). Pinitol (Humanetics Corp.) was provided by incorporation into drinking water (600 mg pinitol/liter water), which is available ad libitum. […] For quantitative assessment of A∃ peptides (Xiang et al. Gene Expr. 2002, 10:271-278), frozen pulverized brain tissues were homogenized in 5.0 M guanidine buffer, diluted (1:10) in phosphate-buffered saline containing 0.05% (v/v) Tween-20 and 1 mM Pefabloc protease inhibitors (Roche Biochemicals, Indianapolis, Ind.) and centrifuged for 20 min at 4° C. Total Aβ1-40 or Aβ1-42 was measured by sandwich ELISA (BioSource, Camarillo, Calif.) according to the manufacturer's instructions. Serum specimens were assessed directly using the same ELISA according to the manufacturer's instructions.

[8] = tested on: insulin receptor signal transduction; assay: Insulin receptor signal transduction in the brain of Tg2576 mice; assay type: in vivo, mouse
GSK-3 = GSK-3 activity in the brain of Tg2576 mice; assay type: in vivo, mouse; conditions: Tg2576 mice treated with D-pinitol
Tg2576 mice [9] = assay: Cognitive function in Tg2576 mice; assay type: in vivo, mouse
[10] = cited from earlier work
[11] = insulin-resistant and hyperinsulinemic monkeys; cited from earlier work
[12] = history of use, animal and human clinical scientific studies; cited from earlier work
[13] = conditioned culture media, ELISA, increasing concentrations of pinitol
[14] = 80 mg/kg/day in drinking water from six months of age, 12-month old Tg2576 mice

For `OC1C(O)C(O)C(O)C(O)C1O` (stereo not drawn) [d-chiro-inositol, reference compound], the “β-amyloid formation in the in vitro system” value (γ-secretase [1]; in vitro amyloidosis system) was “no inhibitory effect”.

In the case of `CO[C@H]1[C@H](O)[C@@H](O)[C@@H](O)[C@H](O)[C@@H]1O` [D-pinitol], the α-secretase activity (α-secretase) is reported as “no effect; also recorded: does not influence”, the β-secretase activity (β-secretase) is reported as “no effect; also recorded: does not influence” and the Aβ1-40 production (γ-secretase [2]; [13]) is reported as “dose-dependent inhibition”. For the same molecule, the Aβ1-42 production (γ-secretase [2]; [13]) was “dose-dependent inhibition”, the γ-secretase activity (γ-secretase [2]; cultured H4 cells, read out as Aβ1-40 and Aβ1-42 in conditioned media) was “robust inhibitory effect” and the “formation of the ~7 kDa CTF-γ APP fragment” value (γ-secretase [1]; H4-APPswe cells, membrane-bound APP) was “blocked; also recorded: selective reduction”. The “Aβ1-40 peptide in the same tissue culture” value (γ-secretase [3]; CHO-APPswe cells) was “corresponding reduction”, the “formation of the ~7 kDa CTF-γ APP” value (γ-secretase [3]; extracts from CHO-APPswe cells) was “blocked in a dose dependent fashion” and the “cell toxicity (LDH assay)” value [4] was “no detectable cell toxicity”. The “cleavage of NOTCH” value (NOTCH [5]) was “no inhibitory effect”, the “cleavage of NOTCH in the neocortex” value (NOTCH [6]) was “no inhibitory effect” and the “β-amyloidogenesis in the brain” value (Tg2576 mice [7]) was “amelioration”. The “β-amyloidogenesis in the brain” value (Tg2576 mice [7]; listed as pinitol) was “reduced”, the PI3K-p85α [8, 14] was “increased” and the S473-AKT [8, 14] was “increased”. For the same molecule, the “total IRβ” value [8, 14] was “not”, the “Y1162/1163-phosphorylated IRβ” value ([8]; 80 mg/kg/day in drinking water from six months of age, 12-month old Tg2576 mice, vs insulin resistant and control mice) was “increased” and the “insulin receptor signal transduction in the brain” value ([8]; Tg2576 mice treated with D-pinitol) was “restoration”. The “GSK-3 activity in the brain” value (GSK-3) was “restoration”, the cognitive impairment (Tg2576 mice [9]; NIDDM-like insulin resistant Tg2576 mice) was “beneficially influences” and the cognitive functions (Tg2576 mice [9]; Tg2576 mice, 80 mg/kg body weight per day in drinking water, preliminary studies) was “promotes”. For the same molecule, the blood glucose concentration ([10]; normal rats given glucose) was “lower”, the blood glucose concentration ([10]; streptozotocin-induced diabetic rats) was “lower” and the “rate of glucose disappearance” value [11] was “increased”. For the same molecule, the “toxicity and safety in man” value [12] was “non-toxic and safe”.

Reference: patent US9254273B2, “Compositions and methods for treating Alzheimer's disease and related disorders and promoting a healthy nervous system” (Icahn School of Medicine at Mount Sinai, priority 2004, dated 2016)
